{"source": "paper PMC10060569", "about": "(Frontiers in Pharmacology, 2023)", "key": {"COX1": {"tested_on": "COX1", "set-up": "method as in Warner et al., 1999", "settings": "ref Warner et al., 1999; cited from earlier work"}, "[1]": {"molecular_target": "T1, native pig P2X2/3Rs in DRG neurons (Sus scrofa, UniProt F1RI70+I3L7H5)", "T1 sequence (I3L7H5 1-397)": "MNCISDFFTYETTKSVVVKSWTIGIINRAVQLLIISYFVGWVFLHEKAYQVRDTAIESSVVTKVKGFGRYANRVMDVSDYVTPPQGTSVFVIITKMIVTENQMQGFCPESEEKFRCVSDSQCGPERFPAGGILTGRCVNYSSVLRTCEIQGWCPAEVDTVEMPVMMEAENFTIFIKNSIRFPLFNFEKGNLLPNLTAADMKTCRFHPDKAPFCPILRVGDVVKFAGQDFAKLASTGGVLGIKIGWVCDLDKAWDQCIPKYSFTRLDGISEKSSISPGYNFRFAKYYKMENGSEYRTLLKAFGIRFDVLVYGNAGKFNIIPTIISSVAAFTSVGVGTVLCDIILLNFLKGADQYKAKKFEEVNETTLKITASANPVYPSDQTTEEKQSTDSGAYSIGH", "T1 sequence (F1RI70 1-417)": "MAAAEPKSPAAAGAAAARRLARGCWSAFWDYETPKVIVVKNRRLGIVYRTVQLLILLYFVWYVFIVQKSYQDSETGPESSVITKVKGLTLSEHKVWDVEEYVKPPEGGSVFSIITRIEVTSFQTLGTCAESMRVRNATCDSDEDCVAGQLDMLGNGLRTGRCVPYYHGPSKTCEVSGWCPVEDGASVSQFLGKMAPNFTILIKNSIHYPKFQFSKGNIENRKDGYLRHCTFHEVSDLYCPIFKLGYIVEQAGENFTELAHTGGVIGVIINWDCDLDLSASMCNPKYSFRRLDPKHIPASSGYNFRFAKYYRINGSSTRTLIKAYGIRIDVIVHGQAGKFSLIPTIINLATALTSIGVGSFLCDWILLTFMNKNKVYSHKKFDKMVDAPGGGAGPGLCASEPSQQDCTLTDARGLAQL", "assay": "Whole-cell patch-clamp of α,β-meATP-induced currents in pig DRG neurons", "quoted_text": "For this purpose, pigs of the German Landrace breed, with an average age of 15 weeks (14.6 SD2.7) and weight of 47.3 kg (SD11.2), were euthanized using an overdose of pentobarbital 60 mg/kg body weight. Subsequently, the DRG were collected. The DRG of pigs were transferred on ice, and fine excision was performed in ice-cold DMEM F12 medium containing 10% FBS and treated with 1 mg/ml collagenase P, 1 mg/ml trypsin T1426, and 0.1 mg/ml DNAse for digestion. Then, the DRG were cut into small pieces inside the digestion medium for surface enlargement and incubated at 37°C and 5% CO2 for 120 ±30 min. After approximately 60 min in the digestion medium, the DRG were triturated using a glass pipette. After the full incubation time, they were triturated thrice using custom-pulled glass pipettes with decreasing tip diameters (from ∼1.1–1.2 to ∼0.3–0.4 mm). For further purification, the DRG were centrifuged at 500 G and 4°C twice for 4 minutes each, and the pellets were suspended in DMEM F12 with 10% FBS. They were subsequently separated from lighter cell fragments and myelin by centrifugation of a Percoll gradient containing a 60% Percoll and a 25% Percoll gradient for 20 min at 500 G. DRG neurons were plated on coverslips coated with poly-D-lysine (100 μg/ml), laminin (10 μg/ml), and fibronectin (10 μg/ml). Neurons were then cultured in neurobasal A medium supplemented with B27, penicillin, streptomycin, and L-glutamine and used for voltage-clamp recordings after 12–72 h in culture.\nWhole-cell voltage-clamp recordings of DRG neurons were performed using glass electrodes with micropipette tip resistances of 1.3–3.5 MΩ, pulled and fire-polished with a Zeitz DMZ-puller. The intracellular solution contained 10 mM NaCl, 140 mM CsF, 10 mM HEPES, 1 mM EGTA, 5 mM glucose, and 5 mM TEA-Cl (adjusted to pH 7.3 using CsOH). The extracellular bathing solution contained 140 mM NaCl, 3 mM KCl, 1 mM MgCl2, 1 mM CaCl2, 10 mM HEPES, and 20 mM glucose (adjusted to pH 7.4 using NaOH). The liquid junction potential was corrected by −7.8 mV. […]"}, "N190A/S15V-hP2X3R": {"molecular_target": "T2, N190A/S15V-hP2X3R (Homo sapiens, UniProt P56373, N190A/S15V)", "T2 construct": "expressed in transfected cells; host or cells: Xenopus laevis oocytes (cRNA injection)", "T2 sequence (P56373 1-397 S15V/N190A)": "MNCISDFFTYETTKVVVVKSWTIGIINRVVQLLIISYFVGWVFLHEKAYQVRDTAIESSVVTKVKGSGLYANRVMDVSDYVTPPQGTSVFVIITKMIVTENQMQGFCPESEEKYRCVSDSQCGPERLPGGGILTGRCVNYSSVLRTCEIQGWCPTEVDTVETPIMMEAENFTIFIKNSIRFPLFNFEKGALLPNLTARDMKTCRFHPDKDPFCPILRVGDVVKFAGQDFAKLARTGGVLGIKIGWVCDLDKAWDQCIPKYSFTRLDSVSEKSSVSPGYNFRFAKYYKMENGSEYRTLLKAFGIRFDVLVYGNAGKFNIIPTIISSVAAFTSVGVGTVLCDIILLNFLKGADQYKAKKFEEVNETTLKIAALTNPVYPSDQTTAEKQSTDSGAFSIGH", "assay": "TEVC of ATP-induced currents, N190A/S15V-hP2X3R mutant in X. laevis oocytes", "type": "cell-based", "settings": "read-out: % inhibition of 10 µM ATP-induced currents by 10 µM diclofenac", "experimental": "Ion currents mediated by P2X receptors were evoked by the indicated concentration of ATP or α,β-meATP and were recorded 1 or 2 days after cRNA injection at ambient temperature at a holding potential of −60 mV by two-electrode voltage clamp (TEVC) as previously described ([Hausmann et al., 2006]). Calcium-free ORi^− solution (90 mM NaCl, 1 mM KCl, 2 mM MgCl2, 10 mM HEPES, pH 7.4) was used to avoid bias due to calcium-activated chloride channels (CaCC) endogenously expressed in X. laevis oocytes ([Miledi, 1982]; [Methfessel et al., 1986]). […]\nIn the case of fast-desensitizing P2XR subtypes (P2X1R and P2X3R), ATP is applied five times in repetition, and the ATP-induced current amplitude in the presence (after pre-incubation) of the antagonist (fourth application) is compared to the arithmetic mean of flanking control ATP-induced current amplitudes in the absence of the antagonist (third and fifth ATP application). […] The correction factor was calculated as the ratio of the fourth ATP-induced current amplitude to the third amplitude (Eq. 3) when the experiment was performed in the absence of the antagonist. […] Since the magnitude of the run-down varies from day to day and batch to batch of oocytes, the correction factor was determined on each day of the experiments and was calculated as the arithmetic mean of several recordings (at least 3–5 and on average 5) on each day. […]"}, "[2]": {"settings": "100 µM diclofenac, 10 µM α,β-meATP, n = 11"}}}
{"smiles": "O=C(O)Cc1ccccc1Nc1c(Cl)cccc1Cl", "note": "[Diclofenac, diclofenac]", "values": [{"measurement": "IC50", "setting": "COX1", "result": "[…]"}, {"measurement": "mean block ± SD, fourth application vs. mean of third and fifth application", "setting": "[1]; [2]", "result": "70.9 ± 37.2", "unit": "%"}, {"measurement": "mean block ± SD, fourth application vs. preceding third application", "setting": "[1]; [2]", "result": "70.2 ± 34.3", "unit": "%"}, {"measurement": "inhibition at 100 µM", "setting": "[1]; DRG neuron, read-out: inhibition of α,β-meATP-elicited whole-cell currents by 100 µM diclofenac", "result": 70.5, "unit": "%"}, {"measurement": "inhibition at 10 µM", "setting": "N190A/S15V-hP2X3R", "result": 8.1, "unit": "%"}]}
